In ChEMBL document CHEMBL1157025, “Evaluation of aldose reductase inhibition and docking studies of 6'-nitro and 6',6''-dinitrorosmarinic acids” (Eur J Med Chem, 2010) one finds IC50 data, which are given here for three compounds.

Each structure is given as a SMILES string.

This test addresses Aldo-keto reductase family 1 member B1 (Homo sapiens, UniProt P15121). The experiment in a line: Inhibition of aldose reductase.

For `O=C(/C=C/c1cc(O)c(O)cc1[N+](=O)[O-])O[C@H](Cc1cc(O)c(O)cc1[N+](=O)[O-])C(=O)O`, the IC50 (read-out: IC50) turned out to be 0.741 µM.
Same read-out and setting: under `O=C(/C=C/c1ccc(O)c(O)c1)O[C@H](Cc1cc(O)c(O)cc1[N+](=O)[O-])C(=O)O` stands 1.84 µM.
In the case of `O=C(/C=C/c1ccc(O)c(O)c1)O[C@H](Cc1ccc(O)c(O)c1)C(=O)O` [ROSMARINIC ACID], the 50% inhibitory concentration (IC50) amounted to 3.91 µM.
